Laboratory results from PMC8230704 (Journal of the American Chemical Society, 2021).
Read-outs that look alike come from different tables or passages of the source.

How the values were obtained:
NDM-1 [1] = conditions: substrate of NDM-1; cited from earlier work
NDM-1 [2] = molecular target: T1, NDM-1 (Klebsiella pneumoniae, UniProt C7C422); test: NDM-1 inhibition with chromacef substrate; assay type: biochemical
NDM-15 Δ35 BL21 cells = NDM-15 Δ35 BL21 cells (Klebsiella pneumoniae, UniProt C7C422, A233V/M154L); test: Confocal fluorescence imaging of 4D-treated live E. coli expressing Δ35 NDM-15; assay type: cell-based; conditions: DPA up to 200 μM
NDM-1 [3] = molecular target: T1, NDM-1; test: Challenge of fluorescent 4D:NDM-1 complex with inhibitors and chelators; assay type: binding
NDM-1 [4] = molecular target: T1, NDM-1; conditions: read-out: IC50 for purified NDM-1; cited from earlier work
[5] = molecular target: Δ35 NDM-1 expressing BL21 (DE3) E. coli (Klebsiella pneumoniae, UniProt C7C422); test: cell-based
[6] = read-out: Kd,Zn(II); cited from earlier work

chromacef
Km (NDM-1 [1]): 0.66 ± 0.2 µM

CC1=C(C(=O)O)N2C(=O)[C@@H](NC(=O)[C@H](N)c3ccccc3)[C@H]2SC1 [cephalexin]
Km (NDM-1 [1]): 5.6 µM

O=C(O)c1cccc(C(=O)O)n1 [DPA, dipicolinic acid]
IC50 (NDM-1 [2]): 154 µM
effect on fluorescence (NDM-15 Δ35 BL21 cells): no effect on fluorescence
fluorescence turn-on of 4D:NDM-1 after treatment (NDM-1 [3]; DPA 150 μM, 50 μM ZnSO4, from 17-fold maximum): 13 fold
IC50 (NDM-1 [4]): 0.5 µM
IC50 [5]: ~200 µM

O=C([O-])CN(CCN(CC(=O)O)CC(=O)O)CC(=O)[O-].[Ca+2] [CaEDTA, calcium EDTA]
Kd [6]: 0.001 µM

c1ccc(CN(CCN(Cc2ccccn2)Cc2ccccn2)Cc2ccccn2)nc1 [TPEN, N,N,N′,N′-tetrakis(2-pyridinyl-methyl)-1,2-ethanediamine]
fluorescence after pre-incubation of NDM-1 with TPEN (NDM-1 [3]; 10 μM NDM-1 and 10 μM 4D, recovered upon excess ZnSO4): complete reduction of fluorescence
fluorescence turn-on after pre-incubation of NDM-1 with TPEN (NDM-1 [3]; 30 μM NDM-1 pre-incubated with TPEN, then 10 μM 4D): ~ 4 fold
fluorescence turn-on of 4D:NDM-1 after treatment (NDM-1 [3]; TPEN 50 μM, 10 μM ZnSO4, from 12-fold): 9.2 fold
